Measurements: patent US7232800B2, “Derivatives of magainin and methods of production thereof” (priority 2001, dated 2007)
Where two headings read alike, the source gives them in different places. Where no end group is shown, it is not given here.

How the values were obtained:
[1] = system: erythrocytes (blood derived from SD rat); assay: Hemolysis test; type: cell-based
Method: 3 ml of 0.9% sodium chloride solution was added into three tubes separately, followed by addition of 100 μl blood derived from SD rat (provided by Shanghai Laboratory Animal Center, Chinese Academic Sciences) respectively.
As a negative control, the naturally occurring Magainin peptide (obtained from Sigma) was dissolved in sterile water, and the Magainin peptide solution with a concentration of 1 mg/ml was prepared. 300 μl, 1.5 ml and 3 ml of such solution were added into three tubes respectively. After incubation at room temperature for 30 minutes, centrifugation was conducted at 3000 rpm, and supernates in three tubes was taken to determine the optical density at 590 nm with a spectrophotometer.
In the testing group, Hemolysis effect of the Magainin (Leu21, Ser23, Arg24) was examined. Magainin (Leu21, Ser23, Arg24) peptide was dissolved in sterile water to prepare the solution with a concentration of 1 mg/ml, 300 μl, 1.5 ml and 3 m of the solution were added into three tubes respectively, and the hemolysis test was conducted using the same method as applied to the negative control group.
In the positive control group, 0.1% of Triton X-100 (obtained from Sigma Aldrich) was employed aid the hemolysis test was performed according to the steps prescribed above.
In this test, erythrocyte will be precipitated after centrifigation and supernate appear red in the circumstance hemolysis has occurred.

Escherichia coli JM103 = type: cell-based
Method: The anti-microbial effect of the Magainin(Leu21, Ser23, Arg24) was conducted according to the following procedures, with the comparison of that of the naturally occurring Magainin.
The bacterial strain of Escherichia coli JM103 and staphylococcus aureus were employed.
The bacteria were cultivated at 37° centigrade, and diluted to 1×10^6 bacteria/ml. 20 mM of the sterilized Tris-HCl buffer (pH6.5) was added. Then the Magainin derivative and the naturally occurring Magainin II with various concentrations were added respectively, and incubated at 37° centigrade for different time, 50 μl of the cultures was taken and spread on an agar plate, and incubated at 37° centigrade overnight. The remaining bacteria colonies were accounted for, and the percent of the killed bacteria was calculated.
The ant-microbial effects of Magainin (Leu21, Ser23, Arg24) were tested with comparison with that of the naturally occurring Magainin II. […] The anti-microbial effect of Magainin (Leu21, Ser23, Arg24) on Staphylococcus aureus can be seen from table 4, and the result of time-kill study of Magainin (Leu21, Ser23, Arg24) was shown in FIG. 1.

mice of Kun-ming species = assay: Acute toxicity test; type: in vivo; conditions: one week observation; for Livability: mice
Method: Six mice of Kun-ming species were divided into three groups randomly. Mice in the first group were intraperitoneally injected with 100 μg Magainin (Leu21, Ser23, Arg24) which is prepared by the method described in example 1, Mice in the second group were injected with 200 μg Magainin (Leu21, Ser23, Arg24), while those in the third group were injected with 1000 μg Magainin (Leu21, Ser23, Arg24). The toxicity of Magainin (Leu21, Ser23, Arg24) was determined by observing the influence of injection to the survival of the mice.

Triton X-100 [Tritonx-100]
Hemolysis % ([1]; 0.1%, positive control): 100%

GIGKFLHSAKKFGKAFVGEILNSR [Magainin (Leu21, Ser23, Arg24)]
Bacteria killed % (Escherichia coli JM103; 10 μg/ml, 3 hr): 71.3% | Bacteria killed % (Escherichia coli JM103; 10 μg/ml, 4 hr): 44.2% | Bacteria killed % (Escherichia coli JM103; 20 μg/ml, 3 hr): 97.8% | Bacteria killed % (Escherichia coli JM103; 20 μg/ml, 4 hr): 99.1% | Livability (mice of Kun-ming species; 100 μg intraperitoneal injection): 100% | Livability (mice of Kun-ming species; 200 μg intraperitoneal injection): 100% | Livability (mice of Kun-ming species; 1000 μg intraperitoneal injection): 100% | survival of the mice (in words) (mice of Kun-ming species; 100, 200 and 1000 μg intraperitoneal): all survived

GIGKFLHSAKKFGKAFVGEIMNS [Naturally occurring Magainin, Magainin II]
Hemolysis % ([1]; 100 μg/ml, 30 minutes room temperature): 0% | Hemolysis % ([1]; 500 μg/ml, 30 minutes room temperature): 0% | Hemolysis % ([1]; 1000 μg/ml, 30 minutes room temperature): 1.9% | Bacteria killed % (Escherichia coli JM103; 10 μg/ml, 3 hr): 75.4% | Bacteria killed % (Escherichia coli JM103; 10 μg/ml, 4 hr): 84.9% | Bacteria killed % (Escherichia coli JM103; 20 μg/ml, 3 hr): 97.5% | Bacteria killed % (Escherichia coli JM103; 20 μg/ml, 4 hr): 99.2%
